This experiment relates to T1, Est804.
T1 construct: expressed in E. coli BL21(DE3); lysate supernatant called crude, His-tag purification described for SDS-PAGE
Nature of the experiment: release of p-nitrophenol at […] nm, Lineweaver-Burk plot. As to conditions: free enzyme; 0.0-5.0 mM substrate; Britton-Robinson buffer pH 6.8, 40 °C (standard conditions); crude lysate supernatant mentioned, purity of the kinetic sample not clear. Format: biochemical, soil metagenome.

The term Km denotes the concentration of substrate that gives half-maximal velocity.

For the compound `CC(=O)Oc1ccc([N+](=O)[O-])cc1` [ρ-nitrophenyl acetate], the Km stood at 613 µM.

For the origin of these results see article PMC9301488, “Expression, Characterization, Fermentation, Immobilization, and Application of a Novel Esterase Est804 From Metagenomic Library in Pesticide Degradation” (Frontiers in Microbiology, 2022).
